The record followed here is publication PMC4444124, “The Stapled AKAP Disruptor Peptide STAD-2 Displays Antimalarial Activity through a PKA-Independent Mechanism” (PLoS ONE, 2015).

Where “and” joins values, the source holds several entries; their conditions need not be identical. Identical values can stand only once.

For data set [1], the system named is Plasmodium falciparum blood stage parasites. Nature of the data set: Dose-response curves (parasitemia by Hoechst flow cytometry). Format: cell-based. As for the experimental part:
Synchronous ring-stage or late-stage iRBC at <0.5% parasitemia were brought up to 4% hematocrit in complete culture medium and transferred to a 24-well tissue culture plate in 1 mL aliquots. […] 25 μL were removed from each well at 0, 24, 48, and 72 hours, stained with 100 μL 2 μg/mL Hoechst 33342 for 10 minutes at 37°C, and analyzed by flow cytometry as described above. IC50 values were determined according to parasitemia at 24 hours post-treatment. Parasitemia was defined as the percent of Hoechst-positive RBCs as measured by flow cytometry.
For orientation: A flow cytometer gives signals particle by particle.

For data set [2], the system named is Plasmodium falciparum iRBC. Nature of the data set: Parasite viability assay (parasitemia by flow cytometry, Giemsa blood smears). Format: cell-based. The settings on record: for morphology of treated iRBC by blood smear: STAD-2 1 μM, H89 30 μM, light microscopy at 48 hours post-treatment, versus DMSO. As for the experimental part:
25 μL were removed from each well every 24 hours post-treatment, and samples were stained with Hoechst 33342 and analyzed by flow cytometry. Blood smears were made every 24 hours, fixed with methanol, and stained with Giemsa for analysis by light microscopy. Images were acquired using a Nikon Eclipse E400 microscope fitted with a Nikon Digital Sight DS-5M-L1 camera (Nikon Instruments Inc.).

Data set [3] deals with T1, cytoadherence linked asexual protein 3.1, or CLAG3 (Plasmodium falciparum, UniProt O77310).
T1 construct: 4 X 10^8 3D7 parasites were lysed with cold 0.04% saponin in PBS; endogenous in cells; host or cells: P. falciparum 3D7 parasites (parasite supernatant of lysate)
T1 sequence (O77310 25-1417): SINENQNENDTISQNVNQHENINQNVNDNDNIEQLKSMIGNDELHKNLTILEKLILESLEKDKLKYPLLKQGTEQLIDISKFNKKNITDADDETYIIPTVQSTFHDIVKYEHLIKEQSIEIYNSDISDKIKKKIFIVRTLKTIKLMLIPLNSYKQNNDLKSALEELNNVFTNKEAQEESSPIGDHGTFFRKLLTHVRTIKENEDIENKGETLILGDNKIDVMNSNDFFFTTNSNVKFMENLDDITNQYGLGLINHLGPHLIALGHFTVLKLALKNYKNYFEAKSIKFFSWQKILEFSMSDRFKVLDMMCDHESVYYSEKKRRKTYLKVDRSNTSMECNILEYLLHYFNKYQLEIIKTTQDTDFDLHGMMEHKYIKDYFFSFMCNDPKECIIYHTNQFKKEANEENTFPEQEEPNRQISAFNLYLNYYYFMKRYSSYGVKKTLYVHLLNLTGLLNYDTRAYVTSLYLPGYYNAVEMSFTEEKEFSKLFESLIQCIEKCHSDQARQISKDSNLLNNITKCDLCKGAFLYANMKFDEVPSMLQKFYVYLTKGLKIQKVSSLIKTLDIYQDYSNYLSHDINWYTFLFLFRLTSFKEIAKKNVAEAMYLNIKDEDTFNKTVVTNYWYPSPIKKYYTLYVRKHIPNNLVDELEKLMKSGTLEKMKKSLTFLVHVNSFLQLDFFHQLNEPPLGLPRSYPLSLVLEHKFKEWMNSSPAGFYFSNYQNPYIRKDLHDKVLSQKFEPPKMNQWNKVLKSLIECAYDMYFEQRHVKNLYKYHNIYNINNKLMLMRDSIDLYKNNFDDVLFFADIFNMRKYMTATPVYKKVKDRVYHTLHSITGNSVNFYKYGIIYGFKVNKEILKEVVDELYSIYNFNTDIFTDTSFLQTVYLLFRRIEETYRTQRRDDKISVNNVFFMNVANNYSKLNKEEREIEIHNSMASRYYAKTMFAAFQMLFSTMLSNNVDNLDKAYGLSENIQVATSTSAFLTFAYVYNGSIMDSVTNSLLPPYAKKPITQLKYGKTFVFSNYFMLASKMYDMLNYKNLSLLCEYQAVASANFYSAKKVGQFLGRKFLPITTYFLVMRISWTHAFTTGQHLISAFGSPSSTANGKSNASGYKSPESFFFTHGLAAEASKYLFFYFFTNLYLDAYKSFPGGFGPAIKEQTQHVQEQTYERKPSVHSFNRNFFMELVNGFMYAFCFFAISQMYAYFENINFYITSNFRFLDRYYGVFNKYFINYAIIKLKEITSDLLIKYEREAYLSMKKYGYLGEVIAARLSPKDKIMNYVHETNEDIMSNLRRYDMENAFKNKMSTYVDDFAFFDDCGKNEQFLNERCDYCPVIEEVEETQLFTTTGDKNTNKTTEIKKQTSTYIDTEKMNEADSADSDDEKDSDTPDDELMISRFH
Kind of data set: Immunoprecipitation/mass spectrometry with biotin-conjugated peptide. The settings on record: 3D7 parasite supernatant, 16 hours at 4°C, streptavidin beads, MS-MS (S2 Table). The data set is classed as binding. As to the method: 4 X 10^8 3D7 parasites were lysed with cold 0.04% saponin in PBS for 10 minutes. The supernatant was, subsequently, separated from the pellet by centrifugation at 4000 rcf for 10 minutes at 4°C. This supernatant consisted of the RBC cytoplasm and parasite exported proteins (termed host supernatant). The pellet consisted of parasite cells; these were further lysed with […]. The soluble fraction (termed parasite supernatant) of the parasite cells was separated from the insoluble fraction by centrifuging the parasite lysate at 4000 rcf for 10 minutes at 4°C. The host supernatant and the parasite supernatant were each incubated with biotin-conjugated STAD-2 or STAD-2 scramble for 16 hours at 4°C. Peptide-protein complexes were precipitated using streptavidin-coupled Dynabeads (Life Technologies). Dynabeads were subsequently washed four times with 1X PBS, and the precipitated peptide-protein complexes were solubilized in SDS-PAGE sample buffer. Proteins were, then, fractionated on 10% SDS-PAGE, excised, and identified by MS-MS (Proteomics and Mass Spectrometry Core Facility, University of Georgia).
Sequences identified by MS-MS were searched against the NCBI non-redundant protein databases for Plasmodium falciparum (NCBI taxonomy #5833) and human (#9606)/Plasmodium (#5820) and analyzed by Mascot. Results from both database searches were cross-referenced and compiled. […]

The next data set has as its system PfPKA-R. Kind of data set: Immunofluorescence assay, colocalization with PKA regulatory subunit. The data set is classed as cell-based, Plasmodium falciparum. The conditions noted are these: late-stage iRBC, 1 μM FITC-conjugated peptide, 2 hours, anti-PfPKA R antibody. As to the method: (§1) A culture of primarily late-stage iRBC was incubated with STAD-2 or DMSO as described above. Following incubation, 50 μL of cell mixture was removed and washed twice with 1 mL 1X PBS. Cells were then resuspended in 200 μL 4% paraformaldehyde/0.0075% glutaraldehyde and transferred to a CC2 glass chamber slide (Nalge Nunc International). Cells were fixed for 30 minutes at room temperature and gently washed twice with 300 μL 1X PBS. Fixed cells were subsequently permeabilized with 0.1% Triton X-100/PBS for 10 minutes and washed. Cells were then treated with […] sodium borohydride/PBS for 10 minutes to reduce any free aldehyde groups, washed with 1X PBS, and blocked for 1 hour at room temperature with 3% BSA/PBS. Following blocking, cells were brought up in 200 μL primary antibody and left shaking at 4°C overnight. The following morning, cells were washed three times, for 10 minutes each, to remove excess primary antibody and brought up in 200 μL secondary antibody for 1 hour at room temperature. After washing, cells were counterstained with 200 μL 0.5 μg/mL Hoechst 33342 for 3 minutes at room temperature and washed a final time before removing slide chambers, mounting a coverslip with Fluoro-Gel, and sealing. Rat anti-PfPKA-R was generously donated by Gordon Langsley (Institut Cochin) and diluted 1:300 in 3% BSA/PBS. Goat anti-HsPKA-RII (Abcam) was diluted to 10 μg/mL in 3% BSA/PBS. […]

Data set [4] deals with late-stage iRBC. Kind of data set: Hemolysis (oxyhemoglobin absorbance at 415 nm). The conditions noted are these: late-stage iRBC diluted in uRBC, 0 to 8% parasitemia, 1 μM, 6 hours, versus DMSO, n = 4. Format: cell-based, Plasmodium falciparum. As to the method:
Synchronous late-stage iRBC were mixed with uRBC in order to achieve a series of samples with stepwise decreasing parasitemia. […] The plate was incubated at 37°C under standard gas conditions for 6 hours. Following incubation, all samples were transferred to Eppendorf tubes and centrifuged at 700 rcf for 5 minutes to pellet cells. 100 μL of supernatant was removed from each tube and transferred to a 96-well, flat-bottom tissue culture plate. Oxyhemoglobin absorbance was measured at 415 nm using a SpectraMax Plus microplate spectrophotometer with SoftMax Pro 5.4 software (Molecular Devices, LLC).

The test system of data set [5] is late-stage iRBC. As for the experimental part: Late-stage cultures were brought up to 4% hematocrit in complete culture medium and transferred to a 48-well tissue culture plate at 250 μL per well. Plates were spun at 330 rcf for 5 minutes, the medium was aspirated, and cultures were resuspended in either 250 μL complete culture medium or 200 μM furosemide in complete culture medium for 10 minutes at 37°C. Plates were again spun at 330 rcf, aspirated, and resuspended in 250 μL 1 μM STAD-2, 5% D-Sorbitol, 200 μM furosemide, 130 mM glycerol, 6 μM AgNO3, or a combination of the aforementioned for 10 minutes or 2 hours. Following incubation, 25 μL were removed, stained, and analyzed by flow cytometry as described above. Ten-minute time points served as controls for 5% D-Sorbitol and furosemide activities while effects on STAD-2 uptake were determined using 2-hour time points.

Data set [6] relates to Plasmodium falciparum infected red blood cells (iRBC). Nature of the data set: STAD-2 permeability: uptake of FITC-conjugated peptides by flow cytometry. The data set is classed as cell-based.
Experimental: (§2) Synchronous ring-stage or late-stage infected red blood cells (iRBC) and uninfected red blood cells (uRBC) were brought up to 4% hematocrit in complete culture medium. FITC-conjugated peptides were added to a final concentration of 1 μM, and cultures were incubated for 6 hours at 37°C under standard gas conditions. Following incubation, 25 μL cell mixture was removed and treated with 100 μL 2 μg/mL Hoechst 33342 for 10 minutes at 37°C. Cells were subsequently washed once in 1 mL 1X PBS, resuspended in 300 μL 1X PBS, and analyzed for Hoechst and FITC staining on a Beckman Coulter CyAn flow cytometer. 500,000 events were collected at a rate of 15,000–20,000 events per second. Data was analyzed using FlowJo X single cell analysis software (FlowJo LLC).
In another data set the test system is HsPKA-RII. Nature of the data set: Immunofluorescence assay, colocalization with PKA regulatory subunit. Format: cell-based, H. sapiens. The settings on record: late-stage iRBC, 1 μM FITC-conjugated peptide, 2 hours, anti-HsPKA RII antibody. As to the method:
as §1

For data set [7], the system named is uninfected red blood cells (uRBC). The settings on record: 1 μM FITC-conjugated peptide, 6 hours, 37°C, 4% hematocrit, Hoechst/FITC flow cytometry.
Experimental: as §2

As usually defined, the IC50 is the midpoint of a concentration-inhibition curve. `O=S(=O)(NCCNC/C=C/c1ccc(Br)cc1)c1cccc2cnccc12` [H89]: in [1] (late-stage CS2 parasites, serial dilutions 100-0.78 μM, 24 hours, Hoechst flow cytometry, n = 2 (S5 Fig), read-out: H89 in vitro IC50), the IC50 was 30 µM and ~30 µM. In addition, the “morphology of treated iRBC by blood smear” value in [2] (late-stage iRBC) is “clear morphological changes including the notable absence of a digestive vacuole”.
As to `CC(C)C[C@H](NC(=O)[C@H](C)NC(=O)[C@]1(C)CCCC=CCCC[C@](C)(NC(=O)[C@H](CO)NC(=O)[C@@H](NC(=O)[C@H](CC(C)C)NC(=O)[C@H](Cc2ccccc2)NC(=O)[C@H](CCCCN)NC(=O)[C@H](C)NC(=O)[C@H](CC(C)C)NC(=O)[C@H](CCCCN)NC(=O)[C@H](CCCCN)NC(=O)CCNC(=S)Nc2ccc3c(c2)C(=O)OC32c3ccc(O)cc3Oc3cc(O)ccc32)C(C)C)C(=O)N[C@@H](C)C(=O)N[C@@H](CC(C)C)C(=O)N[C@@H](CCCCN)C(=O)N1)C(=O)N[C@@H](CCCCN)C(N)=O` [STAD-2], the “association with CLAG3 by IP/MS” value in data set [3] was “showed association”. Also, in data set [1] (ring- and late-stage iRBC, 0, 0.5, 1, 2, 5 μM, 24 hours post-treatment, n = 3), the “effect on parasitemia relative to DMSO-treated controls, dose-response” value was “concentration-dependent decrease in parasitemia”. In addition, the “colocalization with PfPKA-R” value in the data set with PfPKA-R is recorded as “did not definitively colocalize”. Besides, in data set [2] (late-stage CS2, 3D7, Dd2, Hb3, 1 μM FITC-conjugated peptide, parasitemia at 24, 48, 72 hours, n = 3 (S3 Fig)), the “viability of P. falciparum strains” value is “reduced viability in CS2, Dd2, and Hb3 strains”. Further, the “parasitemia 6 hours post-treatment” value in [2] (late-stage iRBC, 1 μM FITC-conjugated peptide, 6 hours, flow cytometry, n = 7 (S4 Fig)) is recorded as “Reduction in parasitemia was evident”. Further, the “morphology of treated iRBC by blood smear” value in data set [2] (late-stage iRBC) is reported as “did not differ morphologically from DMSO controls”. Besides, the “parasitemia relative to DMSO controls over 72 hours” value in [2] (synchronous ring- and late-stage iRBC, 1 μM, flow cytometry every 24 hours for 72 hours, significant by 48 hours (p<0.001), n = 3) is “significantly decreased parasitemias”. For the same compound, the “iRBC lysis (oxyhemoglobin A415 in medium)” value in the data set on late-stage iRBC [4] is reported as “significantly greater than controls”. Moreover, in the data set with late-stage iRBC [5] (1 μM STAD-2 + 6 μM AgNO3 (AQP1 inhibitor), 2 hours, flow cytometry, n = 2), the “STAD-2 uptake, co-incubation with AgNO3” value is listed as “no apparent change in STAD-2 uptake”. Further, the “STAD-2 uptake, co-treatment with furosemide alone” value with late-stage iRBC [5] (1 μM STAD-2 + 200 μM furosemide (PSAC inhibitor), 2 hours, pre-treatment with medium, flow cytometry, n = 3) is listed as “no discernible effect on STAD-2 uptake”. The “STAD-2 uptake, co-incubation with glycerol” value in the data set with late-stage iRBC [5] (1 μM STAD-2 + 130 mM glycerol (AQP3 solute), 2 hours, flow cytometry, n = 2) is recorded as “no apparent change in STAD-2 uptake”. Also, the “STAD-2 uptake, co-incubation with D-Sorbitol” value in the data set with late-stage iRBC [5] (1 μM STAD-2 + 5% D-Sorbitol (PSAC solute), 2 hours, flow cytometry, n = 2) is given as “slight reduction of STAD-2 uptake”. In addition, in the data set with late-stage iRBC [5] (200 μM furosemide 10 minutes pre-incubation, then 1 μM STAD-2 + 200 μM furosemide 2 hours, p = 0.0557, n = 3), the “STAD-2 uptake, furosemide pre-incubation then co-treatment” value was “consistent but statistically insignificant decrease”. In [6] (1 μM FITC-conjugated peptide, 6 hours, flow cytometry, 2way ANOVA p<0.001, n = 3-6), the “uptake by synchronous ring-stage and late-stage iRBC” value is reported as “significantly increased uptake”. Moreover, the “permeability in iRBC” value in [6] (CS2 iRBC, 1 μM FITC-conjugated peptide, 6 hours, 37°C, 4% hematocrit, Hoechst/FITC flow cytometry) was “significant permeability”. In addition, in data set [6] (iRBC, 1 μM stapled FITC-conjugated peptides, 6 hours, flow cytometry, n = 2-6 (Fig 7)), the “permeability to iRBC among stapled peptides (median fluorescence intensity)” value was “clearly permeable”. The “permeability across parasite strains” value in data set [6] (late-stage CS2, Dd2, 3D7, Hb3 iRBC, 1 μM FITC-conjugated peptide, 2 hours, flow cytometry, n = 2 (S1 Fig)) is “comparable levels of permeability”. For the same compound, the “time to near-maximum levels of uptake” value in data set [6] (late-stage iRBC, 1 μM FITC-conjugated peptide for 1, 2, 3 or 6 hours, flow cytometry, n = 3 (S2 Fig)) was no more than 3 h. Moreover, the “colocalization with HsPKA-RII” value in the data set with HsPKA-RII was “did not definitively colocalize”. Further, in data set [7], the “permeability in uRBC” value is recorded as “only a nominal amount”.
